Results reported in patent publication US20230321101A1, “METHODS AND USES OF HALOFUGINONE” (The Regents of the University of California, priority 2020, published 2023).
Read-outs that look alike come from different tables or passages of the source.

Tests used:
[1] = tested on: SARS-CoV-2; experiment: SARS-CoV-2 infected hamsters, oral halofuginone, lung pathology; type: in vivo; details: vs PBS
Description: FIG. 37A-FIG. 37F: Oral dosing of halofuginone to hamsters infected with SARS-CoV-2 improved hamster lung pathology relative to a control group of hamsters (PBS).

[2] = tested on: Vero E6 cells; experiment: Cell number of Vero E6 cells treated for 24 h; type: cell-based, African green monkey; details: Vero E6, 24 h
Method: FIG. 32A and FIG. 32B. […] A-B, Measurement of authentic SARS-CoV-2 infection and cell number in Vero E6 cells treated with (A) halofuginone (HF) or (B) the 2R,3S-(+) enantiomer for 24 h. Data shown as mean±S.D.

[3] = tested on: recombinant SARS-CoV-2 spike RBD protein binding to Calu-3 cells
[4] = tested on: primary human bronchial epithelial cells; details: 10 nM and 100 nM
[5] = tested on: core HSPGs in Hep3B cells; experiment: HSPG core proteins by SDS-PAGE with mAb 3G10 in Hep3B cells; type: cell-based, human
[6] = mice, cited from earlier work
[7] = tested on: hepcidin expression; experiment: Hepcidin expression in the mouse liver upon iron loading; type: in vivo; details: mice, 1 μg per mouse per day for 8 days, iron-rich diet (8.3 g/kg) for 7 days
Method: FIG. 10. […] Mice treated with Halofuginone for 8 days, 1 μg per mouse per day. Mice were either on normal iron-balanced chow (0.2 g/kg) or iron-rich diet (8.3 g/kg) for 7 days in conjunction with the treatment.

[8] = tested on: authentic SARS-CoV-2; type: cell-based
[9] = tested on: Huh 7.5 cells; experiment: Cell viability of Huh 7.5 cells, alamarBlue; type: cell-based, human; details: Huh 7.5, 24 hr
Method: FIG. 28. Cell viability in Huh 7.5 cells after treatment for 24 hours with Halofuginone. Cell viability was measured using alamarBlue staining in HuH 7.5 cells at indicated concentrations of halofuginone after a 24 hr treatment (n=3 per dose). Data shown as mean±S.D. Statistics performed by 1-way ANOVA (ns: p>0.05, *:p≤0.01).
Cell Culture. Huh-7.5 cells^1 were generously provided by Charles M. Rice (Rockefeller University, New York, NY). Hep3B, BHK-15 and Calu-3 cells were from ATCC and were grown in DMEM medium containing 10% % fetal bovine serum, and 100 IU/ml of penicillin, 100 μg/ml of streptomycin sulfate and nonessential amino acids. BHK-15 were grown in Modified Eagle's supplemented with 10% fetal bovine serum and nonessential amino acids (Gibco, #11140-050). Hep3B, A375 and Vero E6 cells were from ATCC. The Hep3B cells carrying mutations in HS biosynthetic enzymes was derived from the parent ATCC Hep3B stock, and have been described previously^2. All cells were supplemented with 10% FBS, 100 IU/ml of penicillin and 100 μg/ml of streptomycin sulfate and grown under an atmosphere of 5% CO2 and 95% air. Cells were passaged before 80% confluence was reached and seeded as explained for the individual assays. Cell viability was measured using LDH leakage (Promega) or alamarBleu (Thermo Fisher).

[10] = tested on: authentic SARS-COV-2 virus; experiment: SARS-CoV-2 infected golden hamsters, intraperitoneal halofuginone; type: in vivo; details: for viral titer (TCID50 from nasal washes): 200 μg/kg intraperitoneally daily
Method: FIG. 35A, FIG. 35B, and FIG. 35C.
Six golden hamsters were dosed at 200 μg/kg with halofuginone starting at day −1, infected at day 0 with authentic SARS-COV-2 virus, and every day for five more days they received 200 μg/kg of halofuginone (FIG. 35A). Dosing was done intraperitoneally. A control group (n=6) was administered PBS. On day 3, half of the animals (n=3) in each group was sacrificed, and at day 5 the remaining animals (n=3) were sacrificed. TCID50 values as a measure of SARS-CoV-2 infectivity were measured from nasal washes at day 3 and day 5; the values were determined by viral cytopathic effect.

[11] = tested on: cell surface heparan sulfate of Vero E6 cells; experiment: Heparan sulfate presentation by anti-HS mAb 10E4 staining of Vero E6 cells; type: cell-based, African green monkey; details: Vero E6, 18 h
[12] = tested on: hepcidin expression; experiment: Hepcidin and SMAD7 expression in HepG2 human hepatocytes; type: cell-based; details: HepG2, 24 hr incubation
Method: FIG. 8A and FIG. 8B. HepG2—24 hr incubation.

**Q.** For `O=C(CC1NCCCC1O)Cn1cnc2cc(Br)c(Cl)cc2c1=O` (racemic) [halofuginone], which “lung fibrosis, blood clotting, and inflammation” value ([1]; oral 1 mg/kg) is on record?
**A.** reduced lung fibrosis, blood clotting, and inflammation

**Q.** What about the extended lung pathology ([1]; oral dosing) of the same compound?
**A.** significant improvement

**Q.** What about the lung pathology severity ([1]; oral dosing) of the same compound?
**A.** significant improvement

**Q.** And the lung weight ([1]; oral dosing)?
**A.** significant improvement

**Q.** And the macroscopic lung pathology ([1]; oral dosing)?
**A.** significant improvement

**Q.** What about the “cell proliferation (cell number)” value [2] of the same compound?
**A.** inhibit SARS-CoV-2 infection and cell proliferation

**Q.** What about the “effect on spike (RBD) protein binding” value [3] of the same compound?
**A.** dose-dependently inhibited spike protein binding

**Q.** What about the “reduction in spike RBD binding” value [3] of the same compound?
**A.** 5 fold

**Q.** And the “effect on spike (RBD) protein binding” value ([3]; listed as Halofuginone)?
**A.** reduced spike RBD protein binding

**Q.** What about the cell viability [4] of the same compound?
**A.** without affecting cell viability

**Q.** What about the “expression of core HSPGs (mAb 3G10)” value [5] of the same compound?
**A.** reduced the expression of core HSPGs in a dose-dependent manner

**Q.** And the “exposure (area under the curve) in the lung compared to plasma” value ([6]; single intravenous injection)?
**A.** more than 87 fold

**Q.** And the tissue distribution [6]?
**A.** highest tissue concentrations in the lung and kidney

**Q.** What about the “hepcidin expression in the liver” value [7] of the same compound?
**A.** reduces hepcidin expression in the mouse liver

**Q.** And the “number of SARS-CoV-2 infected cells” value ([8]; at both 10 nM and 100 nM)?
**A.** significantly reduced the number of SARS-CoV-2 infected cells

**Q.** What about the “inhibition of SARS-CoV-2” value ([8]; different halofuginone doses) of the same compound?
**A.** complete inhibition of SARS-CoV-2

**Q.** And the cell viability [9]?
**A.** without affecting cell viability

**Q.** And the “viral titer (TCID50 from nasal washes)” value ([10]; day 3 and day 5)?
**A.** significantly reduced viral titer by day 5 post infection

**Q.** And the “viral titer (TCID50 from nasal washes)” value ([10]; day 3 and day 5, listed as Halofuginone)?
**A.** potent anti-viral efficacy

**Q.** And the body weight ([10]; 200 μg/kg intraperitoneally, day -1 to day 5)?
**A.** no deleterious effect on body weight

**Q.** And the “effect on heparan sulfate presentation (10E4 binding)” value [11]?
**A.** 10E4 binding increased and did not significantly alter heparan sulfate production and presentation

**Q.** What about the “effect on heparan sulfate presentation (10E4 binding)” value ([11]; listed as Halofuginone) of the same compound?
**A.** did not decrease cellular HS

**Q.** What about the “BMP induced expression of hepcidin” value [12] of the same compound?
**A.** inhibits BMP induced expression of hepcidin

**Q.** What about the SMAD7 levels [12] of the same compound?
**A.** increases SMAD7 levels

**Q.** What about the “inflammation (IL6) induced expression of hepcidin” value [12] of the same compound?
**A.** inhibits inflammation (1L6) induced expression of hepcidin
